Our source for the EC50 values is patent US20250368625A1, “PIPERAZINES” (Grünenthal GmbH, priority 2024, published 2025).

Structures are written as SMILES.

One assay deals with T1, human SSTR4 (Homo sapiens, UniProt P31391).
T1 construct: expressed in transfected cells; host or cells: CHO-K1
T1 sequence (P31391 whole entry): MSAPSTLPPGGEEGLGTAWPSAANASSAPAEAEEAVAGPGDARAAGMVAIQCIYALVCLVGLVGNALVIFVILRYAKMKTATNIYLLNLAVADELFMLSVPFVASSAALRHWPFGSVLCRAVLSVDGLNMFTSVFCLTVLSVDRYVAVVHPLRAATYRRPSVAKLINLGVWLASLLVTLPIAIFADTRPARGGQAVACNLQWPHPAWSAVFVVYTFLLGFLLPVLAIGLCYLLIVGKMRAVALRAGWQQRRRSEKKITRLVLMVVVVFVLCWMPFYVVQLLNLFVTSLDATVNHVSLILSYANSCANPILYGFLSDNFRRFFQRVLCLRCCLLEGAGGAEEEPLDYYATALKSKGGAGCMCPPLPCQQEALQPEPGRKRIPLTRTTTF
Kind of assay: hSSTR4 cAMP assay (cAMP accumulation, LANCE Ultra cAMP kit, CHO-K1 human SSTR4 Gi cell line). The class given is cell-based. The conditions noted are these: functional agonism, forskolin 10 μM stimulated CHO-K1 human SSTR4 Gi cells, 30 min at 25° C., at least duplicate, averaged; read-out: hSSTR4 EC50. The procedure:
cAMP accumulation assay using a CHO-K1 human SSTR4 Gi cell line.
Quantification of intracellular cAMP was performed using the LANCE Ultra cAMP assay kit from Revvity according to the manufacturer's instructions. CHO-K1 human SSTR4 Gi cell were either seeded in a density of 3K cells per well into a 384 well plate and incubated at 37° C. and 5% CO2 for 18-20 h or a stock of frozen cells were defrosted and seeded in a density of 5K cells per well without any further cultivation directly prior to the assay in a total volume of 5 μL in stimulation buffer. For pre-cultured cells, medium was replaced with 5 μL stimulation buffer before the assay. Cells were then stimulated with forskolin (final concentration 10 μM) and test compound (SSTR4 agonist) in increasing concentrations in duplicates for 30 min at 25° C. After stimulation, cells were lysed by addition of 10 μL of detection buffer (provided with the kit) and cell lysates were further diluted to ensure final cAMP concentrations fitted well into the dynamic range of the test kit. 10 μL of the diluted lysates were then added to respective wells of an OptiPlate-384 microplate. Thereafter, 5 μL of 4× Eu-cAMP tracer working solution was added, followed by addition of 5 μL of ULight-anti-cAMP working solution. The plate was then incubated for 1 h at 25° C. before reading on a TR-FRET microplate instrument. Data were normalized to cAMP high (forskolin only) and low control (forskolin+100 nM SST14) before fitting to a 4-Paramter logistic function.
All data was generated according to the cAMP assay conditions described above in at least duplicate and results are averaged and rounded to two significant figures.
Background: Changes in cAMP serve as a functional read-out for many G protein-coupled receptors.
As usually defined, the EC50 is the concentration that produces a half-maximal response. `Cc1cccc2c(C(C)(C)NC(=O)[C@@H]3CNCCN3C(C)C)n[nH]c12` [SC-040, (S)-1-isopropyl-N-(2-(7-methyl-1H-indazol-3-yl)propan-2-yl)piperazine-2-carboxamide]: the EC50 stood at 0.39 nM.

Regarding `Cc1cccn2c(C(C)(C)NC(=O)[C@@H]3CNCCN3CC3CCC(F)(F)CC3)ncc12` [SC-087, (S)-1-((4,4-difluorocyclohexyl)methyl)-N-(2-(8-methylimidazo[1,5-a]pyridin-3-yl)propan-2-yl)piperazine-2-carboxamide], the EC50 turned out to be 0.27 nM. The same measure, in the same setting: the same measure for `Cc1cccn2c(C(C)(C)NC(=O)[C@@H]3CN(Cc4cccnc4)CCN3)ncc12` [SC-061, (S)-N-(2-(8-methylimidazo[1,5-a]pyridin-3-yl)propan-2-yl)-4-(pyridin-3-ylmethyl)piperazine-2-carboxamide]: 1700 nM.

`Cc1cccn2c(C(C)(C)NC(=O)[C@@H]3CNCCN3C(C)C)ncc12` [SC-035, (S)-1-isopropyl-N-(2-(8-methylimidazo[1,5-a]pyridin-3-yl)propan-2-yl)piperazine-2-carboxamide]: the EC50 came out at 0.35 nM. In the case of `CN1CCNC[C@H]1C(=O)NC(C)(C)c1ncc2c(Cl)cccn12` [SC-104, (S)-N-(2-(8-chloroimidazo[1,5-a]pyridin-3-yl)propan-2-yl)-1-methylpiperazine-2-carboxamide], the concentration giving a half-maximal response (EC50) came out at 0.9 nM. With `Cc1cccn2c(C(C)(C)NC(=O)C3CNCCN3CC3COC3)ncc12` (racemic) [SC-014, rac-N-(2-(8-methylimidazo[1,5-a]pyridin-3-yl)propan-2-yl)-1-(oxetan-3-ylmethyl)piperazine-2-carboxamide], the EC50 was found to be 3.1 nM. For `Cc1cccn2c(C(C)(C)NC(=O)[C@@H]3CNCCN3Cc3ccc(C(F)(F)F)cc3)ncc12` [SC-028, (S)-N-(2-(8-methylimidazo[1,5-a]pyridin-3-yl)propan-2-yl)-1-(4-(trifluoromethyl)benzyl)piperazine-2-carboxamide], the EC50 was 0.17 nM. As for `CN1CCNC[C@H]1C(=O)NC(C)(C)c1ncc2c(C3CC3)cccn12` [SC-118, (S)-N-(2-(8-cyclopropylimidazo[1,5-a]pyridin-3-yl)propan-2-yl)-1-methylpiperazine-2-carboxamide], the EC50 was determined as 15 nM. As for `Cc1cccn2c(C(C)(C)NC(=O)[C@@H]3CN(C(=O)C4CC(F)(F)C4)CCN3)ncc12` [SC-080, (S)-4-(3,3-difluorocyclobutane-1-carbonyl)-N-(2-(8-methylimidazo[1,5-a]pyridin-3-yl)propan-2-yl)piperazine-2-carboxamide], the half-maximal effective concentration (EC50) was over 10000 nM. The same measure, in the same setting: the same measure for `Cc1cccn2c(C(C)(C)NC(=O)[C@@H]3CNCCN3CC3COC3)ncc12` [SC-042, (S)-N-(2-(8-methylimidazo[1,5-a]pyridin-3-yl)propan-2-yl)-1-(oxetan-3-ylmethyl)piperazine-2-carboxamide]: 1.3 nM; for `Cc1cccn2c(C(C)(C)NC(=O)C3CNCCN3Cc3ccccn3)ncc12` (racemic) [SC-003, rac-N-(2-(8-methylimidazo[1,5-a]pyridin-3-yl)propan-2-yl)-1-(pyridin-2-ylmethyl)piperazine-2-carboxamide]: 3.3 nM; for `Cc1cccn2c(C(C)(C)NC(=O)[C@@H]3CN(C)CCN3CC(F)(F)F)ncc12` [SC-045, (S)-4-methyl-N-(2-(8-methylimidazo[1,5-a]pyridin-3-yl)propan-2-yl)-1-(2,2,2-trifluoroethyl)piperazine-2-carboxamide]: 1.4 nM.

For the compound `Cc1cccn2c(C(C)(C)NC(=O)[C@@H]3CNCCN3Cc3cccc(C(F)(F)F)c3)ncc12` [SC-025, (S)-N-(2-(8-methylimidazo[1,5-a]pyridin-3-yl)propan-2-yl)-1-(3-(trifluoromethyl)benzyl)piperazine-2-carboxamide], the EC50 was 0.05 nM. In the case of `Cc1cccn2c(C(C)(C)NC(=O)[C@@H]3CN(C(=O)c4ccn(C)n4)CCN3)ncc12` [SC-084, (S)-4-(1-methyl-1H-pyrazole-3-carbonyl)-N-(2-(8-methylimidazo[1,5-a]pyridin-3-yl)propan-2-yl)piperazine-2-carboxamide], the concentration for a half-maximal effect (EC50) was over 10000 nM. For `CN1CCNC[C@@H]1C(=O)NC(C)(C)c1ncc2c(Cl)cccn12` [SC-109, (R)-N-(2-(8-chloroimidazo[1,5-a]pyridin-3-yl)propan-2-yl)-1-methylpiperazine-2-carboxamide], the EC50 was 1600 nM. The same measure, in the same setting: the same measure for `COCC(C)(C)CN1CCNC[C@H]1C(=O)NC(C)(C)c1ncc2c(C)cccn12` [SC-039, (S)-1-(3-methoxy-2,2-dimethylpropyl)-N-(2-(8-methylimidazo[1,5-a]pyridin-3-yl)propan-2-yl)piperazine-2-carboxamide]: 1.4 nM. Regarding `Cc1cccn2c(C(C)(C)NC(=O)[C@@H]3CN(Cc4cocn4)CCN3)ncc12` [SC-063, (S)-N-(2-(8-methylimidazo[1,5-a]pyridin-3-yl)propan-2-yl)-4-(oxazol-4-ylmethyl)piperazine-2-carboxamide], the EC50 was 930 nM.

`CC(C)(NC(=O)[C@@H]1CNCCN1)c1ncc2c(Cl)cccn12` [SC-108, (S)-N-(2-(8-chloroimidazo[1,5-a]pyridin-3-yl)propan-2-yl)piperazine-2-carboxamide]: the EC50 was found to be 19 nM. Regarding `CC(=O)N1CCNCC1C(=O)NC(C)(C)c1ncc2c(C)cccn12` (racemic) [SC-009, rac-1-acetyl-N-(2-(8-methylimidazo[1,5-a]pyridin-3-yl)propan-2-yl)piperazine-2-carboxamide], the EC50 worked out at 3400 nM.

Regarding `Cc1cccn2c(C(C)(C)NC(=O)C3CNCCN3c3ccccc3)ncc12` (racemic) [SC-093, rac-N-(2-(8-methylimidazo[1,5-a]pyridin-3-yl)propan-2-yl)-1-phenylpiperazine-2-carboxamide], the EC50 came to 0.86 nM.

As for `Cc1cccn2c(C(C)(C)NC(=O)[C@@H]3CNCCN3CC(F)(F)F)ncc12` [SC-017, (S)-N-(2-(8-methylimidazo[1,5-a]pyridin-3-yl)propan-2-yl)-1-(2,2,2-trifluoroethyl)piperazine-2-carboxamide], the EC50 is 0.2 nM.

As to `Cc1cccn2c(C(C)(C)NC(=O)[C@@H]3CNCCN3CC3(C)COC3)ncc12` [SC-031, (S)-N-(2-(8-methylimidazo[1,5-a]pyridin-3-yl)propan-2-yl)-1-((3-methyloxetan-3-yl)methyl)piperazine-2-carboxamide], the EC50 came out at 12 nM.

Regarding `Cc1cccn2c(C(C)(C)NC(=O)[C@@H]3CNCCN3C)nc(C)c12` [SC-114, (S)-N-(2-(1,8-dimethylimidazo[1,5-a]pyridin-3-yl)propan-2-yl)-1-methylpiperazine-2-carboxamide], the EC50 is 0.38 nM. As for `Cc1cccn2c(C(C)(C)NC(=O)[C@@H]3CNCCN3CC3CCC3)ncc12` [SC-033, (S)-1-(cyclobutylmethyl)-N-(2-(8-methylimidazo[1,5-a]pyridin-3-yl)propan-2-yl)piperazine-2-carboxamide], the EC50 came to 0.38 nM.

As for `Cc1cccn2c(C(C)(C)NC(=O)[C@@H]3CN(C)CCN3C)ncc12` [SC-046, (S)-1,4-dimethyl-N-(2-(8-methylimidazo[1,5-a]pyridin-3-yl)propan-2-yl)piperazine-2-carboxamide], the EC50 stood at 2.8 nM.

With `Cc1cccc2c(C(C)(C)NC(=O)[C@@H]3CNCCN3C)nn(C)c12` [SC-126, (S)-N-(2-(1,7-dimethyl-1H-indazol-3-yl)propan-2-yl)-1-methylpiperazine-2-carboxamide], the EC50 turned out to be 2.6 nM. With `Cc1cccn2c(C(C)(C)NC(=O)[C@@H]3CNCCN3CC3CC(F)(F)C3)nc(C)c12` [SC-115, (S)-1-((3,3-difluorocyclobutyl)methyl)-N-(2-(1,8-dimethylimidazo[1,5-a]pyridin-3-yl)propan-2-yl)piperazine-2-carboxamide], the EC50 was 0.34 nM. `Cc1cccn2c(C(C)(C)NC(=O)[C@@H]3CN(Cc4cnn(C(C)C)c4)CCN3)ncc12` [SC-074, (S)-4-((1-isopropyl-1H-pyrazol-4-yl)methyl)-N-(2-(8-methylimidazo[1,5-a]pyridin-3-yl)propan-2-yl)piperazine-2-carboxamide]: the EC50 turned out to be 2600 nM. On to `Cc1cccn2c(C(C)(C)NC(=O)C3CNCCN3C(=O)c3cnn(C)c3)ncc12` (racemic) [SC-010, rac-1-(1-methyl-1H-pyrazole-4-carbonyl)-N-(2-(8-methylimidazo[1,5-a]pyridin-3-yl)propan-2-yl)piperazine-2-carboxamide], for which the EC50 is 3500 nM. For `Cc1cccn2c(C(C)(C)NC(=O)[C@@H]3CN(C(=O)C4CC4)CCN3)ncc12` [SC-077, (S)-4-(cyclopropanecarbonyl)-N-(2-(8-methylimidazo[1,5-a]pyridin-3-yl)propan-2-yl)piperazine-2-carboxamide], the EC50 was over 1000 nM.

The same assay, now with this note: morpholinyl matched molecular pairs (from WO 2016 075240); same cAMP assay conditions; read-out: hSSTR4 EC50 nM (Comparative Example).
Consider `CC(C)(NC(=O)[C@@H]1CNCCO1)c1nnc2c(Cl)cccn12`, for which the half-maximal effective concentration (EC50) is over 10000 nM.
